How the values were obtained:
[1] = test system: mean arterial blood pressure; experiment: blood pressure effects (MAP) in anti-diarrheal test; format: in vivo, rats; details: p.o.
Experimental: (§1) The tetrahydroquinoxaline produced in Example 1 was tested for anti-diarrheal effects and blood pressure effects using the following method.
(§2) Cecectomies were performed in unfasted rats as follows. Under anesthesia with methohexital (60 mg/kg. i.p.), a laparotyphlectomy was initiated with a 2 cm midventral incision. The cecum was lifted from the abdominal cavity and exteriorized onto a gauze drape. The cecal apex was freed by severing the avascular area of the mesocecum. Next, a ligature of #1 silk suture was positioned so as to occulude the cecum and its vasculature without compromising ileo-colonic patency. After the ligature was secured and ileo-colonic patency confirmed, the cecum was resected, and the remaining exposed cecal mucosa was washed with saline and cauterized. The intestinal segment was then returned to the abdominal cavity, and the abdominal muscle facia closed with interrupted 4/0 chromic-gut sutures. The dermal incision was closed with 9 mm stainless steel wound clips that were removed approximately 1 week post surgery. An arterial line was also implanted into the abdominal aorta and vena cava via the femoral vessels, in a manner similar to that described in Example 10. Immediately following the surgical procedure, animals were returned to their cages and allowed free access to food and water. Animals were permitted at least 48 hour recovery period before being used in experiments.
(§3) The cecectomized rats were put into individual wire-bottomed cages placed over sheets of clean paper, and deprived of food and water for the duration of the assay. The MAP was monitored, as described in Example 10, throughout the assay. Rats were given a 2 hour acclimatization period prior to the start of the assay in order to eliminate sporadic episodes of anxiety-induced defecation. During this period they were observed also for consistent occurrences of pelleted feces; an animal producing other than a pelleted stool was disqualified from the study.
(§4) Diarrhea was induced with oral administration of 16,16-dimethyl prostaglandin E2 (dmPGE2) in 3.5% EtOH. The tetrahydro-quinoxaline was administered by gavage after the onset of diarrheal episodes. The cage papers were removed and examined at 30 minute intervals for dmPGE2 -induced diarrhea. Fecal output was recorded at each interval and fecal consistency is assigned a numerical score in each experimental group as follows: 1=normal pelleted stool; 2=soft-formed stools; 3=water stool and/or diarrhea. The fecal output index (FOI) is defined as the summation of the number of defecation episodes and their ranked consistency score within an observation period.

urine flow = experiment: renal effects (urine flow), intraduodenal administration; format: in vivo, Sprague-Dawley rats; details: test run 3 times
Experimental: (§5) The tetrahydroquinoxaline produced in Example 1 was tested for renal and blood pressure effects using the following method.
(§6) Young male (20-24 weeks old) Sprague-Dawley rats were used. Under ketamine (60 mg/kg b.wt. i.m.) and pentobarbital (i.p. to effect) anesthesia, medical grade plastic tubes were implanted into the abdominal aorta and vena cava via the femoral vessels. In addition, a Silastic-covered stainless steel cannula were sewn in the urinary bladder. After the surgery, the rats were housed individually and were allowed free access to food and water until the day of the experiment.
(§7) For about 7 to 10 days before surgery and during recovery, the rats were accustomed to a restraining cage by placement in the cage for 2 to 3 hours every 2nd and 3rd day. The cage was designed for renal clearance studies (a model G Restrainer sold by Braintree Scientific, Inc., Braintree, Mass.). The animals' adjustment to the cage was judged by the stability of blood pressure and heart rate.
For an experiment, a rat was placed in the restraining cage, and the arterial line was connected to a Statham pressure transducer and a Beckman Dynograph R61 to monitor the mean arterial blood pressure, hereinafter referred to as MAP. The venous line was connected to an infusion pump system for infusion of replacement fluid. The tetrahydroquinoxaline was administered intraduodenally by cannula. The bladder cannula was extended with a silastic tube to facilitate collection of urine in preweighed tubes. The volume of urine was measured gravimetrically. Body weight was recorded before and after the experiment.
Throughout the experiments, 0.9% NaCl containing 10% polyfructosan (Inutest) and 1% sodium PAH was infused at a rate of 20 microliters/min. An equilibration period of 60 minutes was followed by two consecutive 30 minute control clearance periods. Then, the tetrahydroquinoxaline was administered for 90 minutes. Urine collection was resumed 10 minutes after the start of tetrahydroquinoxaline administration. By this time the washout of the bladder cannula dead space (approximately 200 microliters) was completed. Three additional clearance measurements were made. Blood samples (150 microliters) were collected at the midpoint of urine collections. Plasma was separated and saved for analyses, and the cells were resuspended in saline and returned to the animals. Water and sodium loss was carefully replaced i.v. by a variable speed infusion pump.

[2] = biological target: T1, Alpha 2 Adrenergic Receptors (Oryctolagus cuniculus, UniProt Q5ZQK3); experiment: Rabbit Vas Deferens: Alpha 2 Adrenergic Receptors; format: cell-based, New Zealand white rabbit; details: 35° C., field stimulated, 50% reduction in response height, n = number of test runs
T1 construct: from tissue; host or cells: New Zealand white rabbit vas deferens, prostatic end, field stimulated
T1 sequence (Q5ZQK3 1-451): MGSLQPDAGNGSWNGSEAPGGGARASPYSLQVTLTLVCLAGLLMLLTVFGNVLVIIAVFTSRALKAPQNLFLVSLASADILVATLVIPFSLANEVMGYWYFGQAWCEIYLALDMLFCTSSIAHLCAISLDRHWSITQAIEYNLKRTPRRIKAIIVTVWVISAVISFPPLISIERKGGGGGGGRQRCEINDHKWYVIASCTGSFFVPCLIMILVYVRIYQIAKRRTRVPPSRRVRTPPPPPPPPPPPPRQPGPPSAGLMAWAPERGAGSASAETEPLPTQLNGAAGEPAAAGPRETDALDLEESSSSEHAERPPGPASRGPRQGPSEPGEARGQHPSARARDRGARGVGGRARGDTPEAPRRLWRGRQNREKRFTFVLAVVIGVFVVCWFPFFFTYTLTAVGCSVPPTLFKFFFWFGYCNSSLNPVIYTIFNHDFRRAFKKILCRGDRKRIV
Experimental: (§8) The tetrahydroquinoxalines produced in Examples 1 to 3 were tested for activity using the following in vitro methods.
Rabbit Vas Deferens: Alpha 2 Adrenergic Receptors
New Zealand white rabbits (2-3 kg) were killed by CO2 inhalation and the vasa deferentia removed. The prostatic ends of the vasa deferentia (2-3 cm lengths) were mounted between platinum ring electrodes in 9 ml organ baths and bathed in Krebs bicarbonate solution of the following composition (millimolar): NaCl 118.0; KCl 4.7; CaCl2 2.5; MgSO4 1.2; KH2 PO4 1.2; glucose 11.0; NaHCO3 25.0; which solution was maintained at 35° C. and bubbled with 95% O2 and 5% CO2. The initial tension of the vas deferens was 0.5 g. The tissues were left to equilibrate for 30 minutes before stimulation was started. Vasa were then field stimulated (0.1 Hz, 2 ms pulse width at 90 mA) using a square wave stimulator (WPI A310 Accupulser with A385 stimulus). […] Cumulative concentration-response curves were obtained for the tetrahydroquinoxaline being tested with a 4 minute contact time at each concentration. The reduction in response height was measured and expressed as a percentage of the height of the response before the addition of tetrahydroquinxoaline. Concentration response curves for each of tetrahydroquinoxalines were plotted. The effective concentration required for a 50% reduction in response height, expressed as EC50, were obtained from these curves and are set forth below.

[3] = test system: mean arterial blood pressure; experiment: blood pressure effects (MAP) in renal test, intraduodenal administration; format: in vivo, Sprague-Dawley rats; details: test run 3 times
Experimental: as §5, §6, §7
For an experiment, a rat was placed in the restraining cage, and the arterial line was connected to a Statham pressure transducer and a Beckman Dynograph R61 to monitor the mean arterial blood pressure, hereinafter referred to as MAP. […] The volume of urine was measured gravimetrically. Body weight was recorded before and after the experiment. […]

dmPGE2-induced diarrhea = experiment: anti-diarrheal effects in cecectomized rats, dmPGE2-induced diarrhea; format: in vivo; details: p.o.
Experimental: as §1, §2, §3, §4

[4] = test system: Alpha 3 Adrenergic Receptors; experiment: Rabbit Saphenous Vein: Alpha 3 Adrenergic Receptors; format: cell-based, albino rabbit; details: rabbit saphenous vein rings, 37° C., field stimulated; n = number of test runs
Experimental: as §8
Rabbit Saphenous Vein: Alpha 3 Adrenergic Receptors
Thoracic aorta and saphenous vein specimens were obtained from albino rabbits that were killed by CO2 inhalation. The aorta and saphenous vein were each cut into 3 mm rings. Tissues were placed in Krebs-Hensleit solution of the following composition (millimolar): NaCl 119; KCl 4.7; MgSO4 1.5, KH2 PO4 1.2; CaCl2 2.5; NaHCO3 25 and glucose 11.0. The solution also contained cocaine (0.1 millimolar) to block neuronal uptake and EDTA (30 micromolar) and ascorbic acid (5 micromolar) to prevent oxidation of the tetrahydroquinoxaline being tested. Tissues were hung in 10 ml organ baths and tension was measured via Grass FT03 force-displacement transducers. Resting tension was 1 g and 2 g for the saphenous vein and aorta, respectively. The solution was gassed with 95% O2 and 5% CO2 and maintained at 37° C. Tissues were allowed to equilibrate for 2 hours before stimulation and the cumulative addition of the tetrahydroquinoxaline being treated was started. Tissue stimulation was performed as with the rabbit vas deferens, described above. The contractions of the tissue were recorded isometrically as for the rabbit vas deferens assay. […]

[5] = test system: Alpha 1 Adrenergic Receptors; experiment: Rabbit Aorta: Alpha 1 Adrenergic Receptors; format: cell-based, albino rabbit; details: rabbit aorta rings, 37° C., field stimulated; n = number of test runs
Experimental: as §8
Rabbit Aorta: Alpha 1 Adrenergic Receptors
Thoracic aorta and saphenous vein specimens were obtained from albino rabbits that were killed by CO2 inhalation. The aorta and saphenous vein were each cut into 3 mm rings. Tissues were placed in Krebs-Hensleit solution of the following composition (millimolar): NaCl 119; KCl 4.7; MgSO4 1.5, KH2 PO4 1.2; CaCl2 2.5; NaHCO3 25 and glucose 11.0. The solution also contained cocaine (0.1 millimolar) to block neuronal uptake and EDTA (30 micromolar) and ascorbic acid (5 micromolar) to prevent oxidation of the tetrahydroquinoxaline being tested. Tissues were hung in 10 ml organ baths and tension was measured via Grass FT03 force-displacement transducers. Resting tension was 1 g and 2 g for the saphenous vein and aorta, respectively. The solution was gassed with 95% O2 and 5% CO2 and maintained at 37° C. Tissues were allowed to equilibrate for 2 hours before stimulation and the cumulative addition of the tetrahydroquinoxaline being treated was started. Tissue stimulation was performed as with the rabbit vas deferens, described above. The contractions of the tissue were recorded isometrically as for the rabbit vas deferens assay. Cumulative concentration response curves were obtained and the EC50 valve developed for each tetrahydroquinoxaline tested in a manner similar to that for the rabbit vas deferens assay.

intraocular pressure = experiment: effect on intraocular pressure, topical unilateral administration to rabbit eye; format: in vivo, New Zealand white rabbit; details: 0.1% (W/V)
Experimental: The three (3) tetrahydroquinoxaline derivatives produced in accordance with Examples 1 to 3 were tested to determine what effect, if any, these materials have on intraocular pressure.
Each of these materials was dissolved in distilled water at a concentration of 0.1% (W/V). Each of these solutions was administered topically and unilaterally to one eye of a drug-naive, unanesthetized New Zealand white rabbit in a single 50 micro liter drop. The contralateral eye received an equal volume of saline prior to determining the intraocular pressure after the mixture was administered. Also, approximately 10 micro liters of 0.5% (W/V) proparacaine (topical anesthetic) was applied to the corneas of each of the rabbits before determining intraocular pressure. As a control test, six (6) other drug-naive, unanesthetized New Zealand white rabbits were treated and tested as described above except that no tetrahydroquinoxaline derivative was included in the solutions administered to the eyes.
The intraocular pressure was determined in both eyes of each rabbit before and after the solutions were administered. Such intraocular pressure determinations were made in the conventional manner using conventional equipment.

SMILES: Brc1c(NC2=NCCN2)ccc2c1NCCN2 [Example 1, 5-Bromo-6-(2-imidazolin-2-ylamino)-1,2,3,4-tetrahydroquinoxaline]
- Increase in MAP ([1]; 0.01 mg/kg): 0 mm Hg
- Increase in MAP ([1]; 0.03 mg/kg): 0 mm Hg
- Increase in MAP ([1]; 0.10 mg/kg): 0 mm Hg
- Increase in MAP ([1]; 0.30 mg/kg): 0 mm Hg
- Increase in MAP ([1]; 1.00 mg/kg): 0 mm Hg
- Increase in MAP ([1]; 3.00 mg/kg): 10 mm Hg
- Increase in MAP ([1]; 10.00 mg/kg): 25 mm Hg
- effect in blood pressure accompanying anti-diarrheal effects (in words) ([1]; cecectomized rats): no or a relatively minimal effect in blood pressure
- Increase in Urine Flow (urine flow; 0.01 mg/kg): 0 microliters/min./100 g of body
- Increase in Urine Flow (urine flow; 0.03 mg/kg): 4 microliters/min./100 g of body
- Increase in Urine Flow (urine flow; 0.1 mg/kg, P less than 0.05): 16 microliters/min./100 g of body
- Increase in Urine Flow (urine flow; 0.3 mg/kg, P less than 0.05): 24 microliters/min./100 g of body
- Increase in Urine Flow (urine flow; 1 mg/kg, P less than 0.05): 32 microliters/min./100 g of body
- EC50 [2]: 1.75 nM
- Increase in MAP ([3]; 0.3 mg/kg): 2.5 mm Hg
- Increase in MAP ([3]; 1 mg/kg): 8 mm Hg
- Percent Reduction in FOI versus dmPGE2 Control (dmPGE2-induced diarrhea; 0.01 mg/kg): 17%
- Percent Reduction in FOI versus dmPGE2 Control (dmPGE2-induced diarrhea; 0.03 mg/kg): 60%
- Percent Reduction in FOI versus dmPGE2 Control (dmPGE2-induced diarrhea; 0.10 mg/kg): 57%
- Percent Reduction in FOI versus dmPGE2 Control (dmPGE2-induced diarrhea; 0.30 mg/kg): 76%
- Percent Reduction in FOI versus dmPGE2 Control (dmPGE2-induced diarrhea; 1.00 mg/kg): 98%
- Percent Reduction in FOI versus dmPGE2 Control (dmPGE2-induced diarrhea; 3.00 mg/kg): 98%
- Percent Reduction in FOI versus dmPGE2 Control (dmPGE2-induced diarrhea; 10.00 mg/kg): 100%
- anti-diarrheal effects (in words) (dmPGE2-induced diarrhea; cecectomized rats, dmPGE2-induced diarrhea): substantial anti-diarrheal effects
- EC50 [4]: 92 ± 19 nM
- EC50 [5]: 1130 ± 207 nM
- effect on intraocular pressure in the treated eye (in words) (intraocular pressure; treated rabbit eye): effective to reduce intraocular pressure in the treated rabbit eye
- initial effect on intraocular pressure in the treated eye (in words) (intraocular pressure; treated rabbit eye, initial effect): raising the intraocular pressure

SMILES: Brc1c(NC2=NCCN2)ccc2c1NCCN2 [drawing 5]
- Difference In Intraocular Pressure, Initial Effect On Treated Eye (intraocular pressure; single 50 micro liter drop, treated eye, initial effect, N.S. = not statistically significant): +10.7 ± 3.6%
- Difference In Intraocular Pressure, Maximum Effect on Treated Eye (intraocular pressure; single 50 micro liter drop, treated eye, maximum effect, N.S. = not statistically significant): -16.0 ± 3.3%
- Difference In Intraocular Pressure, Maximum Effect On Untreated Eye (intraocular pressure; single 50 micro liter drop, untreated (contralateral) eye, maximum effect, N.S. = not statistically significant): N.S.

From US5077292A, “(2-imidazolin-2-ylamino) tetrahydroquinoxalines and methods for using same” (priority 1989, dated 1991)
